Results taken from US12325696B2, “Indazole derivative, preparation method therefor, and pharmaceutical application thereof” (JIANGSU HENGRUI MEDICINE CO., LTD., priority 2019, dated 2025).
Like-named read-outs stand apart in the source and are kept apart here.

Key:
MCF7 cell = assay: Inhibition of proliferation of MCF7 cell (CellTiter-Glo, 144 hours); format: cell-based; details: Homo sapiens; for IC50: MCF7, CellTiter-Glo, read-out: IC50 of the inhibitory effect on the proliferation of MCF7 cell; for Emax: MCF7 cell proliferation, read-out: Maximum inhibition
In short: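 Seeded overnight, MCF7 cells were treated in MEM with 2% FBS with nine 4-fold dilutions from 100 nM (0.5% DMSO blank). Incubation 144 h at 37° C, 5% CO2. CellTiter-Glo luminescence read; IC50 from signal versus log concentration.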

[1] = Pharmacokinetics in BALB/C nude mice after intragastric administration; format: in vivo; details: female, mouse, plasma, po; for Vd/F: read-out: Apparent volume of distribution Vz/F; for AUC: read-out: Area under curve AUC; for CL/F: read-out: Clearance rate CL/F; for half-life: read-out: Half-life t1/2 (converted); for Cmax: read-out: Plasma concentration Cmax; for MRT: read-out: Residence time MRT
Protocol: BALB/C nude mice were used as test animals. The drug concentration in plasma at different time points was determined by LC/MS/MS method after intragastric administration of the compounds of the present disclosure to BALB/C nude mice. The pharmacokinetic behavior and characteristics of the compounds of the present disclosure was studied and evaluated in BALB/C nude mice.
Sixty-three BALB/C nude mice (female, equally divided into seven groups, nine mice per group) were purchased from Jiesijie Laboratory Animal Co., LTD. (Certificate No.: SCXK (Shanghai)2013-0006).
For the compound of Example 14, an appropriate amount of the compound was weighed, followed by the addition of 5% of DMSO, 5% of tween 80 and 90% of normal saline by volume to obtain a colorless, clear and transparent solution (0.1 mg/mL).
For the compounds of Examples 1, 15 and 39 to 42, an appropriate amount of the compound was weighed, followed by the addition of 9% of PEG400, 0.5% of tween 80 and 90.5% of 0.5% CMC-Na by volume to obtain a colorless, clear and transparent solution (1.5 mg/mL).
After an overnight fast, the test compounds were intragastrically administered at an administration volume of 0.2 ml/10 g respectively. The administration dose of the compound of Example 14 was 2 mg/kg, and the administration dose of the compounds of Examples 1, 15 and 39 to 42 was 30 mg/kg.
For the compounds of Examples 1 and 39, 0.1 ml of blood was taken at 0.25, 0.5, 1.0, 2.0, 4.0, 6.0, 8.0, 11.0 and 24.0 hours after the administration (from three animals per time point). The samples were stored in blood collection tubes treated with heparin (Sinopharm Chemical Reagent Co., Ltd.), and centrifuged for 10 minutes at 3500 rpm to separate the blood plasma. The blood plasma was stored at −20° C. The content of the test compound in the plasma of nude mouse after intragastrical administration of the test compound was determined. 25 μL of nude mouse plasma at each time point after the administration was taken, followed by the addition of 30 μL of the internal standard camptothecin solution (National Institutes for Food and Drug Control) (100 ng/mL) and 225 μL of acetonitrile. The resulting solution was vortex-mixed for 5 minutes, and centrifuged for 10 minutes (3700 to 4000 rpm). 0.1 to 0.5 μL of the supernatant was taken from the plasma samples for LC/MS/MS analysis.
For the compounds of Examples 14 and 15, 0.1 ml of blood was taken at 0.5, 1.0, 2.0, 4.0, 6.0, 8.0, 11.0 and 24.0 hours after the administration (from three animals per time point). The samples were stored in heparinized tubes, and centrifuged for 10 minutes at 3500 rpm to separate the blood plasma. The blood plasma was stored at −20° C. The content of the test compound in the plasma of nude mouse after intragastrical administration of the test compound was determined. 25 μL of nude mouse plasma at each time point after the administration was taken, followed by the addition of 30 μL of the internal standard camptothecin solution (100 ng/mL) and 200 μL of acetonitrile. The resulting solution was vortex-mixed for 5 minutes, and centrifuged for 10 minutes (3700 rpm). 0.25 to 1 μL of the supernatant was taken from the plasma samples for LC/MS/MS analysis.
For the compounds of Examples 40 to 42, 0.1 ml of blood was taken at 0.25, 0.5, 1.0, 2.0, 4.0, 6.0, 8.0, 11.0 and 24.0 hours after the administration (from three animals per time point). The samples were stored in tubes anticoagulated with EDTA-K2 (Shanghai Titan Scientific Co., Ltd.), and centrifuged for 1 minute at 10000 rpm and 4° C. The blood plasma was separated within one hour, and stored at −20° C. The process from blood collection to centrifugation was operated under an ice bath condition. The content of the test compound in the plasma of nude mouse after intragastrical administration of the test compound was determined. […]

| SMILES | IC50 (MCF7 cell) [nM] | Emax (MCF7 cell) [%] | Vd/F ([1]; 30 mg/kg) [L/kg] | AUC ([1]; 30 mg/kg) [ng·h/mL] | CL/F ([1]; 30 mg/kg) [mL/min/kg] | half-life ([1]; 30 mg/kg) [min] | Cmax ([1]; 30 mg/kg) [ng/mL] | MRT ([1]; 30 mg/kg) [h] | Vd/F ([1]; 2 mg/kg) [L/kg] | AUC ([1]; 2 mg/kg) [ng·h/mL] | bioavailability ([1]; 2 mg/kg, read-out: Bioavailability F) [%] | CL/F ([1]; 2 mg/kg) [mL/min/kg] | half-life ([1]; 2 mg/kg) [min] | Cmax ([1]; 2 mg/kg) [ng/mL] | MRT ([1]; 2 mg/kg) [h] |
| --- | --- | --- | --- | --- | --- | --- | --- | --- | --- | --- | --- | --- | --- | --- | --- |
| O=C(/C=C/CNC1(COc2ccc(/C(=C(/CC(F)(F)F)c3ccccc3)c3ccc4[nH]nc(F)c4c3)cn2)CC1)N1CCOCC1 [Example 1, (E)-1-Morpholino-4-((1-(((5-((Z)-4,4,4-trifluoro-1-(3-fluoro-1H-indazol-5-yl)-2-phenylbut-1-en-1-yl)pyridin-2-yl)oxy)methyl)cyclopropyl)amino)but-2-en-1-one] | 0.5 | 100 | 8.76 | 9850 | 50.8 | 119 | 4280 | 1.6 |  |  |  |  |  |  |  |
| O=C(/C=C/CN1CCC[C@@H](Oc2ccc(/C(=C(/CC(F)(F)F)c3ccccc3)c3ccc4[nH]nc(F)c4c3)cn2)C1)N1CCCC1 [Example 15, (E)-1-(Pyrrolidin-1-yl)-4-((R)-3-((5-((Z)-4,4,4-trifluoro-1-(3-fluoro-1H-indazol-5-yl)-2-phenylbut-1-en-1-yl)pyridin-2-yl)oxy)piperidin-1-yl)but-2-en-1-one] | 0.2 | 107 | 5.87 | 6560 | 76 | 53.4 | 4570 | 1.41 |  |  |  |  |  |  |  |
| CN(C)C(=O)/C=C/CNC1(COc2ccc(/C(=C(/CC(F)(F)F)c3ccccc3)c3ccc4[nH]nc(F)c4c3)cn2)CC1 [Example 39, (E)-N,N-Dimethyl-4-((1-(((5-((Z)-4,4,4-trifluoro-1-(3-fluoro-1H-indazol-5-yl)-2-phenylbut-1-en-1-yl)pyridin-2-yl)oxy)methyl)cyclopropyl)amino)but-2-enamide] | 0.2 | 113 | 2.47 | 16500 | 30.3 | 56.4 | 6600 | 1.57 |  |  |  |  |  |  |  |
| O=C(/C=C/CNC1(COc2ccc(/C(=C(/CC(F)(F)F)c3ccccc3)c3ccc4[nH]nc(F)c4c3)cn2)CC1)N1CC[C@H](O)C1 [Example 41, (E)-1-((S)-3-Hydroxypyrrolidin-1-yl)-4-((1-(((5-((Z)-4,4,4-trifluoro-1-(3-fluoro-1H-indazol-5-yl)-2-phenylbut-1-en-1-yl)pyridin-2-yl)oxy)methyl)cyclopropyl)amino)but-2-en-1-one] | 0.1 | 115 | 14.4 | 5020 | 99.6 | 100 | 2890 | 2.26 |  |  |  |  |  |  |  |
| O=C(/C=C/CNC1(COc2ccc(/C(=C(/CC(F)(F)F)c3ccccc3)c3ccc4[nH]nc(F)c4c3)cn2)CC1)N1CCO[C@@H](CO)C1 [Example 42, (E)-1-((R)-2-(Hydroxymethyl)morpholino)-4-((1-(((5-((Z)-4,4,4-trifluoro-1-(3-fluoro-1H-indazol-5-yl)-2-phenylbut-1-en-1-yl)pyridin-2-yl)oxy)methyl)cyclopropyl)amino)but-2-en-1-one] | 0.03 | 105 | 11.5 | 4510 | 111 | 72 | 2570 | 1.56 |  |  |  |  |  |  |  |
| O=C(/C=C/CNC1(COc2ccc(/C(=C(/CC(F)(F)F)c3ccccc3)c3ccc4[nH]nc(F)c4c3)cn2)CC1)N1CC(O)C1 [Example 40, (E)-1-(3-Hydroxyazetidin-1-yl)-4-((1-(((5-((Z)-4,4,4-trifluoro-1-(3-fluoro-1H-indazol-5-yl)-2-phenylbut-1-en-1-yl)pyridin-2-yl)oxy)methyl)cyclopropyl)amino)but-2-en-1-one] | 0.1 | 115 | 4.59 | 11900 | 42.1 | 75.6 | 3560 | 2.3 |  |  |  |  |  |  |  |
| CN(C)C(=O)/C=C/CN1CCC[C@@H](Oc2ccc(/C(=C(/CC(F)(F)F)c3ccccc3)c3ccc4[nH]nc(F)c4c3)cn2)C1 [Example 14, (E)-N,N-Dimethyl-4-((R)-3-((5-((Z)-4,4,4-trifluoro-1-(3-fluoro-1H-indazol-5-yl)-2-phenylbut-1-en-1-yl)pyridin-2-yl)oxy)piperidin-1-yl)but-2-enamide] | 0.8 | 108 |  |  |  |  |  |  | 14.2 | 205 | 24.8 | 163 | 60.6 | 87 | 1.9 |
